In US12023360B2, “Composition and methods of screening” (OPTIBIOTIX LIMITED, priority 2013, dated 2024):

Tests used:
Format in all cases: cell-based
[1] = system: Clostridia; assay: Anaerobic culture utilisation, FISH enumeration at 24 h: Clostridia; conditions: inoculum 7.55
Method: (§1) In these experiments, anaerobic cultures were tested to evaluate the in vitro utilisation of a novel Lactobacillus reuteri galactooligosaccharide by monitoring the populations of gut bacterial groups at 24 hours using fluorescent in situ hybridisation, and short-chain fatty acid (SCFA). Fructooligosaccharides (FOS), melibiose and raffinose were used as reference carbohydrates.

[2] = system: Bifidobacteria; assay: Anaerobic culture utilisation, FISH enumeration at 24 h: Bifidobacteria; conditions: inoculum 6.85
Method: as §1

[3] = system: Bacteroides; assay: Anaerobic culture utilisation, FISH enumeration at 24 h: Bacteroides; conditions: inoculum 7.98
Method: as §1

[4] = system: E. coli; assay: Anaerobic culture utilisation, FISH enumeration at 24 h: E. coli; conditions: inoculum 8.14
Method: as §1

[5] = system: Lactobacilli; assay: Anaerobic culture utilisation, FISH enumeration at 24 h: Lactobacilli; conditions: inoculum 7.15
Method: as §1

[6] = system: Eubacteria; assay: Anaerobic culture utilisation, FISH enumeration at 24 h: Eubacteria; conditions: inoculum 8.06
Method: as §1

Compound: OC[C@H]1O[C@H](OC[C@H]2O[C@H](O[C@]3(CO)O[C@H](CO)[C@@H](O)[C@@H]3O)[C@H](O)[C@@H](O)[C@@H]2O)[C@H](O)[C@@H](O)[C@H]1O [Raffinose, raffinose]
- Clostridia, 24 [1]: 7.81

Compound: OC[C@H]1O[C@H](OCC2O[C@@H](O)[C@H](O)[C@@H](O)[C@@H]2O)[C@H](O)[C@@H](O)[C@H]1O (stereo partly shown) [Melibiose, melibiose]
- Bifidobacteria, 24 [2]: 7.33
- Bacteroides, 24 [3]: 7.9
- Clostridia, 24 [1]: 7.65
- E. coli, 24 [4]: 7.66
- Lactobacilli, 24 [5]: 7.43
- Eubacteria, 24 [6]: 7.84
